Laboratory results reported in patent US9328374B2, “Selective culture medium and method for detecting carbapenem-resistant bacteria in a test sample” (Institut National de la Sante et de la Recherche Medicale …, priority 2011, dated 2016).
Read-outs that look alike come from different tables or passages of the source.

Columns and labels:
Test in all cases: MIC of imipenem, ertapenem and meropenem
C. freundii = format: cell-based, Citrobacter freundii
E. cloacae = format: cell-based, Enterobacter cloacae
E. aerogenes = format: cell-based, Enterobacter aerogenes
[1] = C. freundii MAU, Overexpressed AmpC + TEM-3, non-carbapenemase producer
[2] = strain C. freundii MAU, Overexpressed AmpC + TEM-3, non-carbapenemase producer

Measured: MIC

C[C@@H](O)[C@H]1C(=O)N2C(C(=O)O)=C(S[C@@H]3CN[C@H](C(=O)Nc4cccc(C(=O)O)c4)C3)[C@H](C)[C@H]12 [ETP, ertapenem]
0.064 µg/mL: E. cloacae; Enterobacter cloacae, E. cloacae 7746, (wild type), non-carbapenemase producer, read-out: MIC
0.19 µg/mL: E. aerogenes; Klebsiella aerogenes, E. aerogenes 1085 (TEM-24), read-out: MIC | E. aerogenes; Klebsiella aerogenes, E. aerogenes 1085, TEM-24, non-carbapenemase producer, read-out: MIC | E. aerogenes; Klebsiella aerogenes, strain E. aerogenes 1085, TEM-24, non-carbapenemase producer, read-out: MIC
0.5 µg/mL: E. cloacae; Enterobacter cloacae, E. cloacae TAW (IMP-8 + SHV-12), read-out: MIC | E. cloacae; Enterobacter cloacae, E. cloacae TAW, IMP-8 + SHV-12, read-out: MIC | E. cloacae; Enterobacter cloacae, E. cloacae TUR (OXA-48 + SHV-5), read-out: MIC | E. cloacae; Enterobacter cloacae, E. cloacae TUR, OXA-48 + SHV-5, read-out: MIC | E. cloacae; Enterobacter cloacae, strain E. cloacae TAW, IMP-8 + SHV-12, read-out: MIC | E. cloacae; Enterobacter cloacae, strain E. cloacae TUR, OXA-48 + SHV-5, read-out: MIC
1 µg/mL: E. cloacae; Enterobacter cloacae, E. cloacae TWA, IMP-8, read-out: MIC
0.016 µg/mL: C. freundii; Citrobacter freundii, C. freundii 1003, CTX-M-15 + TEM-1, non-carbapenemase producer, read-out: MIC | C. freundii; Citrobacter freundii, C. freundii 10107 (TEM-1 + SHV-12), read-out: MIC | C. freundii; Citrobacter freundii, C. freundii 10107, TEM-1 + SHV-12, non-carbapenemase producer, read-out: MIC | C. freundii; Citrobacter freundii, C. freundii 10135 (CTX-M-15), read-out: MIC | C. freundii; Citrobacter freundii, C. freundii 10135, CTX-M-15, non-carbapenemase producer, read-out: MIC | C. freundii; Citrobacter freundii, strain C. freundii 10107, TEM-1 + SHV-12, non-carbapenemase producer, read-out: MIC | C. freundii; Citrobacter freundii, strain C. freundii 10135, CTX-M-15, non-carbapenemase producer, read-out: MIC | E. cloacae; Enterobacter cloacae, E. cloacae 1012, TEM-1 + SHV-12, non-carbapenemase producer, read-out: MIC | E. cloacae; Enterobacter cloacae, E. cloacae 1027, TEM-1 + CTX-M-15, non-carbapenemase producer, read-out: MIC | E. cloacae; Enterobacter cloacae, E. cloacae 5434 (wild type), read-out: MIC | E. cloacae; Enterobacter cloacae, E. cloacae 5434, (wild type), non-carbapenemase producer, read-out: MIC
> 32 µg/mL: C. freundii; Citrobacter freundii, C. freundii STE (NDM-1 + OXA-1 + OXA-9 + OXA-10 + CTX-M-15 + TEM-1), read-out: MIC | C. freundii; Citrobacter freundii, C. freundii STE, NDM-1 + TEM-1 + CTX-M-15 + VIM-4 + OXA-1 + OXA-9 + OXA-10 + OXA-181, read-out: MIC | E. cloacae; Enterobacter cloacae, E. cloacae 1008029, VIM-1+ CTX-M-3, read-out: MIC | E. cloacae; Enterobacter cloacae, E. cloacae 1008079, IMP-1, read-out: MIC | E. cloacae; Enterobacter cloacae, E. cloacae 1008187, IMP-1 + CTX-M-15, read-out: MIC | E. cloacae; Enterobacter cloacae, E. cloacae HMG, KPC-2 + TEM-1, read-out: MIC
4 µg/mL: E. cloacae; Enterobacter cloacae, E. cloacae HPTU (KPC-2 + TEM-1 + SHV-11), read-out: MIC | E. cloacae; Enterobacter cloacae, E. cloacae HPTU, KPC-2 + TEM-1 + SHV-11, read-out: MIC | E. cloacae; Enterobacter cloacae, strain E. cloacae HPTU, KPC-2 + TEM-1 + SHV-11, read-out: MIC
0.38 µg/mL: E. cloacae; Enterobacter cloacae, E. cloacae KAR, VIM-1+ SHV-70, read-out: MIC
2 µg/mL: E. cloacae; Enterobacter cloacae, E. cloacae CFVL, KPC-2 + TEM-3, read-out: MIC
8 µg/mL: C. freundii; [1] | C. freundii; [2] | E. cloacae; Enterobacter cloacae, E. cloacae BEU, OXA-48 + TEM-1 + CTX-M-15 + SHV-12, read-out: MIC
6 µg/mL: E. cloacae; Enterobacter cloacae, E. cloacae (KPC-2), read-out: MIC
0.75 µg/mL: E. cloacae; Enterobacter cloacae, E. cloacae 10111 (TEM-1 + CTX-M-15), read-out: MIC | E. cloacae; Enterobacter cloacae, strain E. cloacae 10111, TEM-1 + CTX-M-15, non-carbapenemase producer, read-out: MIC
0.12 µg/mL: E. cloacae; Enterobacter cloacae, E. cloacae CLO (CTX-M-15), read-out: MIC | E. cloacae; Enterobacter cloacae, E. cloacae CLO, CTX-M-15, non-carbapenemase producer, read-out: MIC | E. cloacae; Enterobacter cloacae, E. cloacae CVB (VEB-1), read-out: MIC | E. cloacae; Enterobacter cloacae, E. cloacae CVB, VEB-1, non-carbapenemase producer, read-out: MIC | E. cloacae; Enterobacter cloacae, strain E. cloacae CLO, CTX-M-15, non-carbapenemase producer, read-out: MIC | E. cloacae; Enterobacter cloacae, strain E. cloacae CVB, VEB-1, non-carbapenemase producer, read-out: MIC | E. aerogenes; Klebsiella aerogenes, E. aerogenes 1009, TEM-24, non-carbapenemase producer, read-out: MIC
0.008 µg/mL: C. freundii; Citrobacter freundii, C. freundii 7767 (wild type), read-out: MIC | C. freundii; Citrobacter freundii, C. freundii 7767, (wild type), non-carbapenemase producer, read-out: MIC | E. cloacae; Enterobacter cloacae, E. cloacae 7725, (wild type), non-carbapenemase producer, read-out: MIC
16 µg/mL: E. cloacae; Enterobacter cloacae, E. cloacae 501, OXA-48 + TEM-1 + CTX-M-15, read-out: MIC | E. cloacae; Enterobacter cloacae, E. cloacae IR38 (NDM-1 + CTX-M-15), read-out: MIC | E. cloacae; Enterobacter cloacae, E. cloacae IR38, NDM-1 + CTX-M-15, read-out: MIC

C[C@@H](O)[C@H]1C(=O)N2C(C(=O)O)=C(SCCN=CN)C[C@H]12 [IPM, imipenem]
0.12 µg/mL: E. cloacae; E. cloacae ARF (overexpressed AmpC) | E. cloacae; E. cloacae ARF, Overexpressed AmpC, non-carbapenemase producer | E. cloacae; E. cloacae AZA (overexpressed AmpC) | E. cloacae; E. cloacae AZA, Overexpressed AmpC, non-carbapenemase producer | E. cloacae; E. cloacae BLA (overexpressed AmpC) | E. cloacae; E. cloacae BLA, Overexpressed AmpC, non-carbapenemase producer | E. cloacae; E. cloacae CLO (CTX-M-15) | E. cloacae; E. cloacae CLO, CTX-M-15, non-carbapenemase producer | E. cloacae; E. cloacae CON (overexpressed AmpC) | E. cloacae; E. cloacae CVB (VEB-1) | E. cloacae; E. cloacae CVB, VEB-1, non-carbapenemase producer | E. cloacae; strain E. cloacae BLA, Overexpressed AmpC, non-carbapenemase producer | E. cloacae; strain E. cloacae CLO, CTX-M-15, non-carbapenemase producer | E. cloacae; strain E. cloacae CON, Overexpressed AmpC, non-carbapenemase producer | E. cloacae; strain E. cloacae CVB, VEB-1, non-carbapenemase producer | E. aerogenes; E. aerogenes 1085 (TEM-24) | E. aerogenes; E. aerogenes 1085, TEM-24, non-carbapenemase producer | E. aerogenes; strain E. aerogenes 1085, TEM-24, non-carbapenemase producer
0.25 µg/mL: C. freundii; C. freundii 7767 (wild type) | C. freundii; C. freundii 7767, (wild type), non-carbapenemase producer | E. cloacae; E. cloacae 1019, TEM-1, non-carbapenemase producer, overexpressed AmpC | E. cloacae; E. cloacae CON, Overexpressed AmpC, non-carbapenemase producer
0.75 µg/mL: E. cloacae; E. cloacae TAW (IMP-8 + SHV-12) | E. cloacae; E. cloacae TAW, IMP-8 + SHV-12 | E. cloacae; strain E. cloacae TAW, IMP-8 + SHV-12
24 µg/mL: E. cloacae; E. cloacae HMG, KPC-2 + TEM-1
8 µg/mL: E. cloacae; E. cloacae 1008079, IMP-1 | E. cloacae; E. cloacae 1008187, IMP-1 + CTX-M-15
>32 µg/mL: C. freundii; C. freundii STE (NDM-1 + OXA-1 + OXA-9 + OXA-10 + CTX-M-15 + TEM-1) | C. freundii; C. freundii STE, NDM-1 + TEM-1 + CTX-M-15 + VIM-4 + OXA-1 + OXA-9 + OXA-10 + OXA-181 | E. cloacae; E. cloacae 1008029, VIM-1+ CTX-M-3
4 µg/mL: E. cloacae; E. cloacae (KPC-2) | E. cloacae; E. cloacae CFVL, KPC-2 + TEM-3
1 µg/mL: C. freundii; C. freundii MAU (Overexpressed AmpC + TEM-3) | C. freundii; [1] | C. freundii; [2] | E. cloacae; E. cloacae 501, OXA-48 + TEM-1 + CTX-M-15 | E. cloacae; E. cloacae KAR, VIM-1+ SHV-70
0.5 µg/mL: E. cloacae; E. cloacae 10111 (TEM-1 + CTX-M-15) | E. cloacae; E. cloacae 10111, TEM-1 + CTX-M-15, non-carbapenemase producer, overexpressed AmpC | E. cloacae; E. cloacae BEU, OXA-48 + TEM-1 + CTX-M-15 + SHV-12 | E. cloacae; E. cloacae TUR (OXA-48 + SHV-5) | E. cloacae; E. cloacae TUR, OXA-48 + SHV-5 | E. cloacae; strain E. cloacae 10111, TEM-1 + CTX-M-15, non-carbapenemase producer | E. cloacae; strain E. cloacae TUR, OXA-48 + SHV-5
0.38 µg/mL: C. freundii; C. freundii 1003, CTX-M-15 + TEM-1, non-carbapenemase producer | C. freundii; C. freundii 10107 (TEM-1 + SHV-12) | C. freundii; C. freundii 10107, TEM-1 + SHV-12, non-carbapenemase producer | C. freundii; C. freundii 10135 (CTX-M-15) | C. freundii; C. freundii 10135, CTX-M-15, non-carbapenemase producer | C. freundii; strain C. freundii 10107, TEM-1 + SHV-12, non-carbapenemase producer | C. freundii; strain C. freundii 10135, CTX-M-15, non-carbapenemase producer | E. cloacae; E. cloacae 1072, TEM-1 + OXA-1, non-carbapenemase producer, overexpressed AmpC | E. cloacae; E. cloacae 5434 (wild type) | E. cloacae; E. cloacae 5434, (wild type), non-carbapenemase producer | E. cloacae; E. cloacae 7746, (wild type), non-carbapenemase producer
0.19 µg/mL: E. cloacae; E. cloacae 1012, TEM-1 + SHV-12, non-carbapenemase producer | E. cloacae; E. cloacae 1027, TEM-1 + CTX-M-15, non-carbapenemase producer | E. cloacae; E. cloacae 7725, (wild type), non-carbapenemase producer | E. aerogenes; E. aerogenes 1009, TEM-24, non-carbapenemase producer
1.5 µg/mL: E. cloacae; E. cloacae TWA, IMP-8
2 µg/mL: E. cloacae; E. cloacae HPTU (KPC-2 + TEM-1 + SHV-11) | E. cloacae; E. cloacae HPTU, KPC-2 + TEM-1 + SHV-11 | E. cloacae; E. cloacae IR38 (NDM-1 + CTX-M-15) | E. cloacae; E. cloacae IR38, NDM-1 + CTX-M-15 | E. cloacae; strain E. cloacae HPTU, KPC-2 + TEM-1 + SHV-11
